Publication PMC11356900, “Synthesis, Structural Properties and Biological Activities of Novel Hydrazones of 2-, 3-, 4-Iodobenzoic Acid” (Molecules, 2024)
≈ marks a conversion by molar mass, not a printed value.

How the values were obtained:
[1] = test system: Bacillus subtilis ATCC 6633; experiment: Broth microdilution MIC/MBC; conditions: ATCC6633
[2] = test system: Staphylococcus aureus ATCC 25923; experiment: Broth microdilution MIC/MBC; conditions: Staphylococcus aureus, ATCC25923
[3] = test system: Staphylococcus epidermidis ATCC 12228; experiment: Broth microdilution MIC/MBC; conditions: ATCC12228
[4] = test system: Micrococcus luteus ATCC 10240; experiment: Broth microdilution MIC/MBC; conditions: Micrococcus luteus, ATCC10240
[5] = test system: Bacillus cereus ATCC 10876; experiment: Broth microdilution MIC/MBC; conditions: Bacillus cereus, ATCC10876
[6] = test system: Candida albicans ATCC 10231; experiment: Broth microdilution MIC/MFC; format: cell-based; conditions: for MFC: ATCC10231, read-out: MFC; for MIC: ATCC10231, read-out: MIC
Excerpt: (§1) Procedures of in vitro antimicrobial assays are described in Supplementary Materials.
(§2) 2. Microbiology – in vitro antimicrobial activity assays […]
(§3) using the broth microdilution method according to the European Committee on Antimicrobial Susceptibility Testing (EUCAST) and Clinical and Laboratory Standards Institute guidelines against a panel of reference and clinical or saprophytic strains of mi croorganisms, including the Gram-positive bacteria: Staphylococcus aureus ATCC 43300 (Methi-cillin Resistant S. aureus – MRSA), Staphylococcus aureus ATCC 29213 (Methicillin Susceptible S. aureus – MSSA), Staph-ylococcus epidermidis ATCC 12228, Micrococcus luteus ATCC 10240, Bacillus subtilis ATCC 6633 and Bacillus cereus ATCC 10876), Gram-negative bacteria: Bordetella bronchiseptica ATCC 4617, Escherichia coli ATCC 25922, Klebsiella pneumoniae ATCC 13883, Proteus mirabilis ATCC 12453, Salmonella typhimurium ATCC 14028 and Pseudomonas aeruginosa ATCC 9027, and fungi belonging to yeasts: Candida albicans ATCC 10231, Candida albicans ATCC 2091, Candida parapsilosis ATCC 22019, Candida glabrata ATCC 90030 and Candida krusei ATCC 14243. The microorganisms belonging to ATCC originated from American Type Culture Collection, routinely used for the evaluation of antimicrobials. All the used microbial cultures were first subcultured on nutrient agar or Sabouraud agar at 35°C for 18-24 h or 30°C for 24-48 h for bacteria […]
(§4) The surface of Mueller-Hinton agar (for bacteria) and RPMI 1640 with MOPS (for fungi) were inoculated with the suspensions of bacterial or fungal species. Microbial suspensions were prepared in sterile saline with an optical density of McFarland standard scale 0.5. The samples containing the compounds were dissolved in dimethyl sulfoxide (DMSO).
(§5) Furthermore, the bacterial and fungal suspensions put onto the Petri dishes with solid media containing 2 mg/mL of the tested compounds followed were incubated at 37°C for 24h and 30°C for 48h for bacteria and fungi, respectively.
(§6) The inhibition of microbial growth was estimated comparing with a control culture prepared without any tested sam- […]
(§7) antifungal compounds, respectively.
(§8) Subsequently, MIC (Minimal Inhibitory Concentration) of the compounds was examined by the microdilution broth method, using their two-fold dilutions in Mueller-Hinton broth (for bacteria) and RPMI 1640 broth with MOPS (for fungi) prepared in the 96-well polystyrene plates. The final concentrations of the compounds ranged from 1000 to 0.488 µg/mL. Microbial suspensions were prepared in 0.85% NaCl with an optical density of 0.5 McFarland standard. Next each bacterial or fungal suspension was added per each well containing broth and various concentrations of the exam-ined compounds. After incubation, the MIC was assessed spectrophotometrically as the lowest concentration of the […]
(§9) Appropriate DMSO, growth and sterile controls were carried out. The medium with no tested substances was used as a control The MBC (Minimal Bactericidal Concentration) and MFC (Minimal Fungicidal Concentration) are defined as the lowest concentration of the compounds that is required to kill a particular bacterial or fungal species. The MBC/MFC was determined by removing the culture used for the MIC determination from each well and spotted onto the appro-priate agar medium. The plates were incubated under appropriate conditions for bacteria and fungi. The lowest com-pounds concentration with no visible growth observed was assessed as a bactericidal/fungicidal concentration. All the experiments were repeated three times and the representative data are presented.
(§10) 1. European Committee for Antimicrobial Susceptibility Testing (EUCAST) Determination of minimum inhibitory con-centrations (MICs) of antibacterial agents by broth dilution. EUCAST discussion document E. Dis 5.1. Clin. Microbiol.
(§11) 2. Clinical and Laboratory Standards Institute. Reference method for broth dilution antifungal susceptibility testing of […]

[7] = test system: Candida albicans ATCC 2091; experiment: Broth microdilution MIC/MFC; format: cell-based; conditions: ATCC2091, read-out: MIC
Excerpt: as §1, §2, §3, §4, §5, §6, §7, §8, §9, §10, §11

[8] = test system: Candida glabrata ATCC 90030; experiment: Broth microdilution MIC/MFC; format: cell-based; conditions: Nakaseomyces glabratus; for MIC: ATCC90030, read-out: MIC
Excerpt: as §1, §2, §3, §4, §5, §6, §7, §8, §9, §10, §11

[9] = test system: Candida krusei ATCC 14243; experiment: Broth microdilution MIC/MFC; format: cell-based; conditions: Pichia kudriavzevii; for MFC: ATCC14243, read-out: MFC; for MIC: ATCC14243, read-out: MIC
Excerpt: as §1, §2, §3, §4, §5, §6, §7, §8, §9, §10, §11

[10] = test system: Candida parapsilosis ATCC 22019; experiment: Broth microdilution MIC/MFC; format: cell-based; conditions: Lodderomyces parapsilosis, ATCC22019, read-out: MIC
Excerpt: as §1, §2, §3, §4, §5, §6, §7, §8, §9, §10, §11

Candida spp. = experiment: Broth microdilution, summary over reference yeasts; format: cell-based; conditions: reference yeasts from Candida spp.
Excerpt: as §1, §2, §3, §4, §5, §6, §7, §8, §9, §10, §11

[11] = test system: Staphylococcus aureus ATCC 29213; experiment: Broth microdilution MIC/MBC; conditions: ATCC29213
[12] = test system: Staphylococcus aureus ATCC 43300; experiment: Broth microdilution MIC/MBC; conditions: ATCC43300 / MRSA
Gram-positive bacteria = experiment: Broth microdilution, summary over reference Gram-positive bacteria; format: cell-based; conditions: reference Gram-positive bacteria / studied bacteria
Excerpt: as §1, §2, §3, §4, §5, §6, §7, §8, §9, §10, §11

SMILES | MIC [1] [µg/mL] | MIC [2] [µg/mL] | MIC [3] [µg/mL] | MIC [4] [µg/mL] | MIC [5] [µg/mL] | MIC [6] [µg/mL] | MIC [7] [µg/mL] | MIC [8] [µg/mL] | MIC [9] [µg/mL] | MIC [10] [µg/mL] | melting point [°C] | MIC [11] [µg/mL] | MIC [12] [µg/mL] | MFC [6] [µg/mL] | MFC [9] [µg/mL] | antifungal activity in words (Candida spp.) | MBC [2] [µg/mL] | MBC [3] [µg/mL] | MBC [4] [µg/mL] | further results
CC1(C)S[C@@H]2[C@H](NC(=O)[C@H](N)c3ccccc3)C(=O)N2[C@H]1C(=O)O [APC, ampicillin, reference compound] | 62.5 (≈ 179 µM) | – | – | – | – | – | – | – | – | – | – | – | – | – | – | – | – | – | – | –
CCOc1cccc(/C=N/NC(=O)c2ccccc2I)c1O [Compound 10, N-[(3-ethoxy-2-hydroxyphenyl)methylidene]-2-iodobenzohydrazide] | > 1000 | > 1000 | > 1000 | > 1000 | > 1000 | > 1000 | > 1000 | 1000 (≈ 2440 µM) | 1000 (≈ 2440 µM) | > 1000 | 167 to 170 | > 1000 | > 1000 | – | > 1000 | mild activity or were inactive | – | – | – | MFC ([8]; ATCC90030, read-out: MFC): > 1000 µg/mL; antibacterial activity in words (Gram-positive bacteria): no antimicrobial effect

More lines, main results first:

MIC [1] [µg/mL] | MIC [2] [µg/mL] | MIC [3] [µg/mL] | MIC [4] [µg/mL] | MIC [5] [µg/mL] | MIC [6] [µg/mL] | MIC [7] [µg/mL] | MIC [8] [µg/mL] | MIC [9] [µg/mL] | MIC [10] [µg/mL] | melting point [°C] | MIC [11] [µg/mL] | MIC [12] [µg/mL] | SMILES | MFC [6] [µg/mL] | MFC [9] [µg/mL] | antifungal activity in words (Candida spp.) | MBC [2] [µg/mL] | MBC [3] [µg/mL] | MBC [4] [µg/mL] | further results
15.6 (≈ 36.8 µM) | 0.49 (≈ 1.15 µM) | 0.24 (≈ 0.566 µM) | 0.98 (≈ 2.31 µM) | 31.2 (≈ 73.6 µM) | – | – | – | – | – | – | – | – | CO/N=C(\C(=O)N[C@@H]1C(=O)N2C(C(=O)O)=C(COC(N)=O)CS[C@H]12)c1ccco1 [CFX, cefuroxime, reference compound] | – | – | – | – | – | – | –
> 1000 | 500 (≈ 1910 µM) | 1000 (≈ 3820 µM) | 1000 (≈ 3820 µM) | > 1000 | 1000 (≈ 3820 µM) | > 1000 | > 1000 | 1000 (≈ 3820 µM) | > 1000 | 182 to 189 | > 1000 | > 1000 | NNC(=O)c1ccccc1I [Compound 4, 2-iodobenzohydrazide] | > 1000 | > 1000 | mild activity or were inactive | > 1000 | > 1000 | > 1000 | –
1000 (≈ 2430 µM) | 500 (≈ 1220 µM) | 125 (≈ 304 µM) | 1000 (≈ 2430 µM) | > 1000 | 1000 (≈ 2430 µM) | > 1000 | > 1000 | > 1000 | > 1000 | 240 to 245 | > 1000 | > 1000 | O=C(N/N=C/c1cccc([N+](=O)[O-])c1O)c1ccccc1I [Compound 7, N-[(2-hydroxy-3-nitrophenyl)methylidene]-2-iodobenzohydrazide] | > 1000 | – | mild activity or were inactive | > 1000 | 1000 (≈ 2430 µM) | > 1000 | MBC [1]: > 1000 µg/mL
